Patent US20240360114A1 (SIRONAX LTD., priority 2021, published 2024)
pEC50: −log10 of the molar value.

Test system: HT-1080 cells
Experiment: HT-1080 cell viability assay (ferroptosis induced by RSL3, Cell Titer-Glo)
Format: cell-based
Details: Homo sapiens, HT-1080, 20 h, ferroptosis inducer RSL3, 20 hours, ferroptosis inhibitory activity, Table 2
Procedure, shortened: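 EC50 fitted by sigmoidal dose-response regression on luminescent viability data normalized to untreated cells. Compounds ran as a 10-point, 3-fold series from 1.1 μM alongside RSL3 for 20 hours, after overnight seeding.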

Compound	pEC50
CC(C)C1CCN(c2ncc(NC3C4CC5CC3CC(O)(C5)C4)cn2)CC1 (stereo not shown) [Compound 424, 4-((2-(4-isopropylpiperidin-1-yl)pyrimidin-5-yl)amino) adamantan-1-ol]	7.00 to 10.00
CC1CC(C)CN(c2ncc(NC3CC4(CC(NC(=O)C(N)=O)C4)C3)cn2)C1 (stereo not shown) [Compound 425, N1-(6-((2-(3,5-dimethylpiperidin-1-yl)pyrimidin-5-yl)amino)spiro[3.3]heptan-2-yl)oxalamide]	7.00 to 10.00
CC1CN(c2ccc(NC3C4CC5CC3CC(CN)(C5)C4)cc2)CC(C)O1 (stereo not shown) [Compound 426, 5-(aminomethyl)-N-(4-(2,6-dimethylmorpholino)phenyl)adamantan-2-amine]	7.00 to 10.00
NNC(=O)C1CC2(CC(Nc3cnc(N4CCC(C(F)(F)F)CC4)nc3)C2)C1 (stereo not shown) [Compound 427, 6-((2-(4-(trifluoromethyl)piperidin-1-yl)pyrimidin-5-yl)amino)spiro[3.3]heptane-2-carbohydrazide]	7.00 to 10.00
O=C(NO)C1CC2(CC(Nc3cnc(N4CCC(C(F)(F)F)CC4)nc3)C2)C1 (stereo not shown) [Compound 428, N-hydroxy-6-((2-(4-(trifluoromethyl)piperidin-1-yl)pyrimidin-5-yl)amino)spiro[3.3]heptane-2-carboxamide]	7.00 to 10.00
CC(C)C1CCN(c2ncc(NCC[C@H]3CC[C@H](NC(N)=O)CC3)cn2)CC1 [Compound 429, 1-((1r,4r)-4-(2-((2-(4-isopropylpiperidin-1-yl)pyrimidin-5-yl)amino)ethyl)cyclohexyl)urea]	7.00 to 10.00
CC1CN(c2ccc(NC[C@H]3CC[C@H](N)CC3)cc2F)CC(C)O1 (stereo partly shown) [Compound 430, N-(((1r,4r)-4-aminocyclohexyl)methyl)-4-(2,6-dimethylmorpholino)-3-fluoroaniline]	7.00 to 10.00
CC1CN(c2ccc(NC[C@H]3CC[C@H](N)CC3)c(F)c2)CC(C)O1 (stereo partly shown) [Compound 431, N-(((1r,4r)-4-aminocyclohexyl)methyl)-4-(2,6-dimethylmorpholino)-2-fluoroaniline]	7.00 to 10.00
Cc1cc(N2CC(C)OC(C)C2)c(F)cc1NC[C@H]1CC[C@H](N)CC1 (stereo partly shown) [Compound 432, N-(((1r,4r)-4-aminocyclohexyl)methyl)-4-(2,6-dimethylmorpholino)-5-fluoro-2-methylaniline]	7.00 to 10.00
Cc1c(NC[C@H]2CC[C@H](N)CC2)ccc(N2CC(C)OC(C)C2)c1F (stereo partly shown) [Compound 433, N-(((1r,4r)-4-aminocyclohexyl)methyl)-4-(2,6-dimethylmorpholino)-3-fluoro-2-methylaniline]	7.00 to 10.00
CC(C)C1CCN(c2ncc(NC34CC(N)(C3)C4)cn2)CC1 [Compound 434, N1-(2-(4-isopropylpiperidin-1-yl)pyrimidin-5-yl)bicyclo[1.1.1]pentane-1,3-diamine]	5.00 to 6.00
Cc1cc(N2CCC(C(F)(F)F)CC2)c(F)cc1NC1CCC(C(N)=O)CC1 (stereo not shown) [Compound 435, 4-((5-fluoro-2-methyl-4-(4-(trifluoromethyl)piperidin-1-yl)phenyl)amino)cyclohexane-1-carboxamide]	7.00 to 10.00
CCN(CC)c1ccc(NC[C@H]2CC[C@H](N)CC2)cc1 [Compound 436]	7.00 to 10.00
Cc1cc(NC2CC(C(N)=O)C2)ccc1N1CCC(C(F)(F)F)CC1 (stereo not shown) [Compound 437, 3-((3-methyl-4-(4-(trifluoromethyl)piperidin-1-yl)phenyl)amino)cyclobutane-1-carboxamide]	7.00 to 10.00
CC1CN(c2ccc(NC[C@H]3CC[C@H](N)CC3)cc2Cl)CC(C)O1 (stereo partly shown) [Compound 438, N-(((1r,4r)-4-aminocyclohexyl)methyl)-3-chloro-4-(2,6-dimethylmorpholino)aniline]	7.00 to 10.00
CC1CN(c2c(F)cc(NC[C@H]3CC[C@H](N)CC3)cc2F)CC(C)O1 (stereo partly shown) [Compound 439, N-(((1r,4r)-4-aminocyclohexyl)methyl)-4-(2,6-dimethylmorpholino)-3,5-difluoroaniline]	6.00 to 7.00

Compound	pEC50
CC1CN(c2ccc(NC3CCCCC3N)cc2)CC(C)O1 (stereo not shown) [Compound 440, N1-(4-(2,6-dimethylmorpholino)phenyl)cyclohexane-1,2-diamine]	6.00 to 7.00
CC1CN(c2ccc(NC3CCCCC3N)c(F)c2)CC(C)O1 (stereo not shown) [Compound 441, N1-(4-(2,6-dimethylmorpholino)-2-fluorophenyl)cyclohexane-1,2-diamine]	6.00 to 7.00
Cc1cc(N2CC(C)OC(C)C2)ccc1NC1CCCCC1N (stereo not shown) [Compound 442, N1-(4-(2,6-dimethylmorpholino)-2-methylphenyl)cyclohexane-1,2-diamine]	6.00 to 7.00
Cc1nc(N2CC(C)OC(C)C2)ccc1NC1CCC(N)CC1 (stereo not shown) [Compound 443, N1-(6-(2,6-dimethylmorpholino)-2-methylpyridin-3-yl)cyclohexane-1,4-diamine]	6.00 to 7.00
N[C@@H]1CCC[C@H]1Nc1ccc(N2CCC(C(F)(F)F)CC2)cc1 [Compound 444, (1R,2R)-N1-(4-(4-(trifluoromethyl)piperidin-1-yl)phenyl)cyclopentane-1,2-diamine]	7.00 to 10.00
CC1(C)CN(c2ccc(NC[C@H]3CC[C@H](N)CC3)cc2)CC(C)(C)O1 [Compound 445, N-(((1r,4r)-4-aminocyclohexyl)methyl)-4-(2,2,6,6-tetramethylmorpholino)aniline]	7.00 to 10.00
Cc1cc(N2CCC(C(F)(F)F)CC2)ccc1NCCCC[C@H]1CC[C@H](N)CC1 [Compound 447, N-(4-((1r,4s)-4-aminocyclohexyl)butyl)-2-methyl-4-(4-(trifluoromethyl)piperidin-1-yl)aniline]	7.00 to 10.00
CC(C)C1CCN(c2ncc(NC[C@H]3C[C@H](N)C3)cn2)CC1 [Compound 448, N-(((1r,3r)-3-aminocyclobutyl)methyl)-2-(4-isopropylpiperidin-1-yl)pyrimidin-5-amine]	7.00 to 10.00
NC1CCC(CNc2ccc(N3CCS(=O)(=O)CC3)cc2)CC1 (stereo not shown) [Compound 449, 4-(4-(((4-aminocyclohexyl)methyl)amino)phenyl) thiomorpholine 1,1-dioxide]	5.00 to 6.00
CC1CN(c2ccc(NC3CCC(N)CC3)cc2)CC(C)O1 (stereo not shown) [Compound 450, N1-(4-(2,6-dimethylmorpholino)phenyl)cyclohexane-1,4-diamine]	6.00 to 7.00
Cc1cc(NC[C@H]2CC[C@H](N)CC2)cc(C)c1N1CC(C)OC(C)C1 (stereo partly shown) [Compound 451, (((1r,4r)-4-aminocyclohexyl)methyl)-4-(2,6-dimethylmorpholino)-3,5-dimethylaniline]	7.00 to 10.00
Cc1c(NC[C@H]2CC[C@H](N)CC2)ccc(N2CC(C)OC(C)C2)c1C (stereo partly shown) [Compound 452, N-(((1r,4r)-4-aminocyclohexyl)methyl)-4-(2,6-dimethylmorpholino)-2,3-dimethylaniline]	7.00 to 10.00
Cc1cc(N2CC(C)OC(C)C2)c(C)cc1NC[C@H]1CC[C@H](N)CC1 (stereo partly shown) [Compound 453, N-(((1r,4r)-4-aminocyclohexyl)methyl)-4-(2,6-dimethylmorpholino)-2,5-dimethylaniline]	7.00 to 10.00
N[C@H]1CCC[C@H]1Nc1ccc(N2CCC(C(F)(F)F)CC2)cc1 [Compound 454, (1R, 2S)-N1-(4-(4-(trifluoromethyl)piperidin-1-yl)phenyl)cyclopentane-1.2-diamine]	7.00 to 10.00
CC1CN(c2ccc(NC3CCC(N)CC3)cc2F)CC(C)O1 (stereo not shown) [Compound 456, N1-(4-(2,6-dimethylmorpholino)-3-fluorophenyl)cyclohexane-1,4-diamine]	6.00 to 7.00
